Measured values taken from US12083124B2 (Incyte Corporation, priority 2019, dated 2024).
Where two headings read alike, the source gives them in different places.

Columns and labels:
[1] = molecular target: wild-type un-phosphorylated FGFR3 (Homo sapiens, UniProt P22607); experiment: FGFR Enzymatic Assay (FRET peptide phosphorylation), FGFR3
Procedure: (§1) The inhibitor potency of the exemplified compounds was determined in an enzyme discontinuous assay that measures peptide phosphorylation using FRET measurements to detect product formation. Inhibitors were serially diluted in DMSO and a volume of 0.2 μL was transferred to the wells of a 384-well plate. […] Appropriate controls (enzyme blank and enzyme with no inhibitor) were included on the plate. […] The 10 μL/well reaction concentration of the peptide substrate was 500 nM whereas the ATP concentration was maintained near or below the ATP Km. The ATP Km values were pre-determined in a separate series of experiments. The reaction plate was incubated at 25° C. for 1 hr and the reactions were ended with the addition of 5 μL/well of quench solution (50 mM Tris, 150 mM NaCl, 0.5 mg/mL BSA, pH 7.8; 45 mM EDTA, 600 nM staurosporin, with Perkin Elmer Lance Reagents at 3.75 nM Eu-antibody PY20 and 180 nM APC-Streptavidin). The plate was allowed to equilibrate for ˜10 minutes at ambient temperature before scanning on a PheraStar plate reader (BMG Labtech) instrument.
(§2) Either GraphPad prism or XLfit was used to analyze the data. The IC50 values were derived by fitting the data to a four parameter logistic equation producing a sigmoidal dose-response curve with a variable Hill coefficient. Prism equation: Y=Bottom+(Top-Bottom)/(1+10^((Log IC50-X)*Hill slope)); XLfit equation: Y=(A+((B−A)/(1+((X/C)^D)))) where X is the logarithm of inhibitor concentration and Y is the response.
(§3) GraphPad prism3 was used to analyze the data. The IC50 values were derived by fitting the data to the equation for a sigmoidal dose-response with a variable slope. Y=Bottom+(Top-Bottom)/(1+10^((Log IC50-X)*Hill Slope)) where X is the logarithm of concentration and Y is the response.

[2] = molecular target: wild-type un-phosphorylated FGFR1 (Homo sapiens, UniProt P11362); experiment: FGFR Enzymatic Assay (FRET peptide phosphorylation), FGFR1; details: pre-incubated for 4 hours
Chain of wild-type un-phosphorylated FGFR1 (P11362 22-822): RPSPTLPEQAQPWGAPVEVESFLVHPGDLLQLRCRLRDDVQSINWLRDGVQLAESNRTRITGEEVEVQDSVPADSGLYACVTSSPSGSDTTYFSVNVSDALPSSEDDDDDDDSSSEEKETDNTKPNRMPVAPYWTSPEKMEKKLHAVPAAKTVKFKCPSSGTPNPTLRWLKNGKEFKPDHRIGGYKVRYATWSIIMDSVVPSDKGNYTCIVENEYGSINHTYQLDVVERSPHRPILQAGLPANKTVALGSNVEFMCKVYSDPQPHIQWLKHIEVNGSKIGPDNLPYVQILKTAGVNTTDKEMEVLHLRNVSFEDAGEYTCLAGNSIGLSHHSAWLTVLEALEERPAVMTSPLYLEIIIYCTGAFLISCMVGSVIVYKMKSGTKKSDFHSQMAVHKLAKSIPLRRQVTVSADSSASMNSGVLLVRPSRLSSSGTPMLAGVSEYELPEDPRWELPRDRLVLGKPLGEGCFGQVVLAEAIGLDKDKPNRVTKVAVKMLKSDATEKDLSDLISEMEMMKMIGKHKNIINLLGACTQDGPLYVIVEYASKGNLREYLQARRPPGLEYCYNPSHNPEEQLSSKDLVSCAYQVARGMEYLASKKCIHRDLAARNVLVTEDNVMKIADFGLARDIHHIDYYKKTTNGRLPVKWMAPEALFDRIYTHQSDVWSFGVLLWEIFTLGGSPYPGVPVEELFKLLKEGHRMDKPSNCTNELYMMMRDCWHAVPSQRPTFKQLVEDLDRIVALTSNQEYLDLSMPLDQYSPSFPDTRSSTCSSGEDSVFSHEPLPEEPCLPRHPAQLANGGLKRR

[3] = molecular target: wild-type un-phosphorylated FGFR4 (Homo sapiens, UniProt P22455); experiment: FGFR Enzymatic Assay (FRET peptide phosphorylation), FGFR4
Chain of wild-type un-phosphorylated FGFR4 (P22455 22-802): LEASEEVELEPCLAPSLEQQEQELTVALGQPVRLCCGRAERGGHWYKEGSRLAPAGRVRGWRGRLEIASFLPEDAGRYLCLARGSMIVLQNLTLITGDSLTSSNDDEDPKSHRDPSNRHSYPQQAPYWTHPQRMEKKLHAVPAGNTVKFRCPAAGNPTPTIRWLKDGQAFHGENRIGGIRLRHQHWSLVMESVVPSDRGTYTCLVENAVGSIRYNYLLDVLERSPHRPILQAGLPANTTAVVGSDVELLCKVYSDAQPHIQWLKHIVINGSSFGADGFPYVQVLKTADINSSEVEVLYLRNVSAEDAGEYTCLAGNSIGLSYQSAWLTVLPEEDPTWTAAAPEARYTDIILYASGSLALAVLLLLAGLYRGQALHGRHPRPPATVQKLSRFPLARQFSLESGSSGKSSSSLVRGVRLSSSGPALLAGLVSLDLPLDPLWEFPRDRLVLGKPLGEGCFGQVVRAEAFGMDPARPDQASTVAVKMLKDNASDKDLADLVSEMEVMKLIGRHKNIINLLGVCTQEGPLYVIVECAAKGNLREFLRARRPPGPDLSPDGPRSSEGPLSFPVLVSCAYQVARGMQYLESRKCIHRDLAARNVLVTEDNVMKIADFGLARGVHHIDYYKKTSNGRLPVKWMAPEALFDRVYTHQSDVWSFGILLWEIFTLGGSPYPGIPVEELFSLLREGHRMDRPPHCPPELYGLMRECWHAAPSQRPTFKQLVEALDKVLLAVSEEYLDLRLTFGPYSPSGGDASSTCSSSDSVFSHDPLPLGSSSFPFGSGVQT
Procedure: as §1, §2, §3
The data in Table 1 was measured in wild-type un-phosphorylated FGFR1, FGFR2, FGFR3, and FGFR4 proteins.

[4] = molecular target: wild-type un-phosphorylated FGFR2 (Homo sapiens, UniProt P21802); experiment: FGFR Enzymatic Assay (FRET peptide phosphorylation), FGFR2
Chain of wild-type un-phosphorylated FGFR2 (P21802 22-821): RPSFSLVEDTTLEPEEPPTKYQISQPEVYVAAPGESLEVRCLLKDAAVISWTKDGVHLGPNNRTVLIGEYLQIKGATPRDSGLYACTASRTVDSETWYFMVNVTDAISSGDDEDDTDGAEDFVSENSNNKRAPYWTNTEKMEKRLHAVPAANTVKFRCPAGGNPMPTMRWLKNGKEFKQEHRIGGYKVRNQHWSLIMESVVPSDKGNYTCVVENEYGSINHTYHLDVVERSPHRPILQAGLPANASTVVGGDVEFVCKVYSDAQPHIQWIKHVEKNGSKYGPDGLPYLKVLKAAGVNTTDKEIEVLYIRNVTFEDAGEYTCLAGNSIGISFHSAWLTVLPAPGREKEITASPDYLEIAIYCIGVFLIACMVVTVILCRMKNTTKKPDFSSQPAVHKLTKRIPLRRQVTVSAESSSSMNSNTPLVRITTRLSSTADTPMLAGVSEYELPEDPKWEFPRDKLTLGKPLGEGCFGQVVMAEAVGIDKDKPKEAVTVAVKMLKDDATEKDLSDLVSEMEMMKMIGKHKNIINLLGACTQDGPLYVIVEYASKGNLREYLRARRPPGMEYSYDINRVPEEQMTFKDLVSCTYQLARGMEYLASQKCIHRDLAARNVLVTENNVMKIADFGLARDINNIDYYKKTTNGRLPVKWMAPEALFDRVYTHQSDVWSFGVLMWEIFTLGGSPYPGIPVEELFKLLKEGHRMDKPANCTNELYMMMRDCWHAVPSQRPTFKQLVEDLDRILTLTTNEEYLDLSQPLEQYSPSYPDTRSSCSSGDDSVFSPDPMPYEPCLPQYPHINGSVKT

[5] = read-out: FGFR1, wild-type un-phosphorylated FGFR1
[6] = read-out: FGFR4, wild-type un-phosphorylated FGFR4, pre-incubated for 4 hours
[7] = FGFR1, wild-type un-phosphorylated FGFR1
[8] = read-out: FGFR2, wild-type un-phosphorylated FGFR2, pre-incubated for 4 hours

Chain of wild-type un-phosphorylated FGFR3 (P22607 23-806): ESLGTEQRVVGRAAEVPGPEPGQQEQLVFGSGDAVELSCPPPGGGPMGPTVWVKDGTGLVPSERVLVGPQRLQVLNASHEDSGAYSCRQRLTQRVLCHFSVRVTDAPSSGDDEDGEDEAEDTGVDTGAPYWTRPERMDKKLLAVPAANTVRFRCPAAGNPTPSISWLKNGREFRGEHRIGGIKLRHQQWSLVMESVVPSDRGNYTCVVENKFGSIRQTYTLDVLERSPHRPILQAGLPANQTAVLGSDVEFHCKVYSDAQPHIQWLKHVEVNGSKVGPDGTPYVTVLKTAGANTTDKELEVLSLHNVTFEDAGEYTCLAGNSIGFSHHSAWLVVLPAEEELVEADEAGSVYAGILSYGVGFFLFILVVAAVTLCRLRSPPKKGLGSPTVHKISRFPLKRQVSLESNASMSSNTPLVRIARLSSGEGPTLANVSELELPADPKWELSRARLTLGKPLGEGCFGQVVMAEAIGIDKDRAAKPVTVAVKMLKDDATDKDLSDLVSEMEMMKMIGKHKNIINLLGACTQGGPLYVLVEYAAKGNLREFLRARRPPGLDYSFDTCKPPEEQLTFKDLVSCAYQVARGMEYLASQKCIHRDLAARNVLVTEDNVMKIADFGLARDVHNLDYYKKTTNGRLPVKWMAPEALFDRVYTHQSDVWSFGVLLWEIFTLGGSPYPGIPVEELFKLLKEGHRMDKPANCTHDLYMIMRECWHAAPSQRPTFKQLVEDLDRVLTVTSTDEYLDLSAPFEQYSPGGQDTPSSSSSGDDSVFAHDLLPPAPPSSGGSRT

| SMILES | IC50 [1] [nM] | IC50 [2, 5] [nM] | IC50 [3, 6] [nM] | IC50 [4] [nM] | IC50 [2, 7] [nM] | IC50 [3] [nM] | IC50 [4, 8] [nM] |
| --- | --- | --- | --- | --- | --- | --- | --- |
| COc1cc2[nH]nc(-c3cnn([C@H]4CCN(C(=O)[C@H]5C[C@@H](O)C5)C4)c3)c2nc1-c1cccc2c1CCC2 [Example 145, ((S)-3-(4-(5-(2,3-Dihydro-1H-inden-4-yl)-6-methoxy-1H-pyrazolo[4,3-b]pyridin-3-yl)-1H-pyrazol-1-yl)pyrrolidin-1-yl)((cis)-3-hydroxycyclobutyl)methanone] | < 6 | 6 to 40 | 6 to 40 | < 6 | – | – | – |
| COc1cc2[nH]nc(-c3cnn(C4CCN(C(C)=O)CC4)c3)c2nc1-c1cccc2c1CCC2C#N (centres unmarked) [Example 112, 4-(3-(1-(1-Acetylpiperidin-4-yl)-1H-pyrazol-4-yl)-6-methoxy-1H-pyrazolo[4,3-b]pyridin-5-yl)-2,3-dihydro-1H-indene-1-carbonitrile] | < 6 | – | – | < 6 | 40 to 100 | 40 to 100 | – |
| COc1cc2[nH]nc(-c3ccc(C4CCN(C(C)=O)CC4)nc3)c2nc1-c1cccc2c1CCC2C#N (single isomer, unassigned) [Example 182, 4-(3-(6-(1-Acetylpiperidin-4-yl)pyridin-3-yl)-6-methoxy-1H-pyrazolo[4,3-b]pyridin-5-yl)-2,3-dihydro-1H-indene-1-carbonitrile] | < 6 | 6 to 40 | 6 to 40 | < 6 | – | – | – |
| COc1cc2[nH]nc(-c3ccc(N4CCOCC4)nc3)c2nc1-c1cccc(C)c1C [Example 44, 4-(5-(5-(2,3-Dimethylphenyl)-6-methoxy-1H-pyrazolo[4,3-b]pyridin-3-yl)pyridin-2-yl)morpholine] | < 6 | – | – | – | > 100 | > 100 | 6 to 40 |
| COc1cc2[nH]nc(-c3cnn(C)c3)c2nc1-c1cccc2c1CC(F)C2 (centres unmarked) [Example 84, 5-(2-Fluoro-2,3-dihydro-1H-inden-4-yl)-6-methoxy-3-(1-methyl-1H-pyrazol-4-yl)-1H-pyrazolo[4,3-b]pyridine] | < 6 | – | – | < 6 | 40 to 100 | > 100 | – |
| COc1cc2[nH]nc(-c3cnn(C4CN(C(=O)C5(C#N)CC5)C4)c3)c2nc1-c1cccc2c1CCC2 [Example 149, 1-(3-(4-(5-(2,3-Dihydro-1H-inden-4-yl)-6-methoxy-1H-pyrazolo[4,3-b]pyridin-3-yl)-1H-pyrazol-1-yl)azetidine-1-carbonyl)cyclopropane-1-carbonitrile] | < 6 | 6 to 40 | 6 to 40 | < 6 | – | – | – |
| COc1cc2[nH]nc(-c3cnn(C4CN(C(=O)N(C)C)C4)c3)c2nc1-c1cccc(C)c1C [Example 72, 3-(4-(5-(2,3-Dimethylphenyl)-6-methoxy-1H-pyrazolo[4,3-b]pyridin-3-yl)-1H-pyrazol-1-yl)-N,N-dimethylazetidine-1-carboxamide] | < 6 | – | – | < 6 | 40 to 100 | 40 to 100 | – |
| COc1cc2[nH]nc(-c3cnn([C@H]4CCN(C(=O)[C@@H]5CCCO5)C4)c3)c2nc1-c1cccc2c1CCC2C#N (stereo partly drawn) [Example 169, 4-(6-Methoxy-3-(1-((S)-1-((S)-tetrahydrofuran-2-carbonyl)pyrrolidin-3-yl)-1H-pyrazol-4-yl)-1H-pyrazolo[4,3-b]pyridin-5-yl)-2,3-dihydro-1H-indene-1-carbonitrile] | < 6 | 6 to 40 | – | < 6 | – | 40 to 100 | – |
| COCC(=O)N(C)C1CC(c2ccc(-c3n[nH]c4cc(OC)c(-c5cccc6c5CCC6)nc34)cn2)C1 (centres unmarked) [Example 188, N-(3-(5-(5-(2,3-Dihydro-1H-inden-4-yl)-6-methoxy-1H-pyrazolo[4,3-b]pyridin-3-yl)pyridin-2-yl)cyclobutyl)-2-methoxy-N-methylacetamide] | < 6 | 6 to 40 | 6 to 40 | < 6 | – | – | – |
| COc1cc2[nH]nc(-c3cnn(C4CN(C(=O)[C@@H](C)O)C4)c3)c2nc1-c1cccc2c1CCC2 [Example 123, (R)-1-(3-(4-(5-(2,3-Dihydro-1H-inden-4-yl)-6-methoxy-1H-pyrazolo[4,3-b]pyridin-3-yl)-1H-pyrazol-1-yl)azetidin-1-yl)-2-hydroxypropan-1-one] | < 6 | 6 to 40 | 6 to 40 | < 6 | – | – | – |
| COc1cc2[nH]nc(-c3cnn(C4CN(C(=O)C5(CO)CCC5)C4)c3)c2nc1-c1cccc2c1CCC2 [Example 139, (3-(4-(5-(2,3-Dihydro-1H-inden-4-yl)-6-methoxy-1H-pyrazolo[4,3-b]pyridin-3-yl)-1H-pyrazol-1-yl)azetidin-1-yl)(1-(hydroxymethyl)cyclobutyl)methanone] | < 6 | 6 to 40 | 6 to 40 | < 6 | – | – | – |
| COc1cc2[nH]nc(-c3cnn(C4CN(C(=O)[C@H](C)N(C)C)C4)c3)c2nc1-c1cccc2c1CCC2 [Example 118, (S)-1-(3-(4-(5-(2,3-Dihydro-1H-inden-4-yl)-6-methoxy-1H-pyrazolo[4,3-b]pyridin-3-yl)-1H-pyrazol-1-yl)azetidin-1-yl)-2-(dimethylamino)propan-1-one] | < 6 | 6 to 40 | – | < 6 | – | 40 to 100 | – |
| COc1cc2[nH]nc(-c3cnn([C@H]4CCN(C(=O)[C@H](C)O)C4)c3)c2nc1-c1cccc2c1CCC2 [Example 133, (S)-1-((S)-3-(4-(5-(2,3-Dihydro-1H-inden-4-yl)-6-methoxy-1H-pyrazolo[4,3-b]pyridin-3-yl)-1H-pyrazol-1-yl)pyrrolidin-1-yl)-2-hydroxypropan-1-one] | < 6 | 6 to 40 | – | < 6 | – | 40 to 100 | – |
| COc1cc2[nH]nc(-c3ccc(CN4CC5CC4CO5)nc3)c2nc1-c1cccc2c1CCC2 (centres unmarked) [Example 161, 5-((5-(5-(2,3-Dihydro-1H-inden-4-yl)-6-methoxy-1H-pyrazolo[4,3-b]pyridin-3-yl)pyridin-2-yl)methyl)-2-oxa-5-azabicyclo[2.2.1]heptane] | < 6 | – | – | < 6 | 40 to 100 | 40 to 100 | – |
| COc1cc2[nH]nc(-c3ccc(CN4CCn5ncnc5C4)nc3)c2nc1-c1cccc2c1CCC2 [Example 163, 7-((5-(5-(2,3-Dihydro-1H-inden-4-yl)-6-methoxy-1H-pyrazolo[4,3-b]pyridin-3-yl)pyridin-2-yl)methyl)-5,6,7,8-tetrahydro-[1,2,4]triazolo[1,5-a]pyrazine] | < 6 | – | – | < 6 | 40 to 100 | 40 to 100 | – |
| COc1cc2[nH]nc(-c3cnn(C)c3)c2nc1-c1cccc2c1CC(O)C2 (single isomer, unassigned) [Example 10, 4-(6-Methoxy-3-(1-methyl-1H-pyrazol-4-yl)-1H-pyrazolo[4,3-b]pyridin-5-yl)-2,3-dihydro-1H-inden-2-ol] | < 6 | – | – | – | 40 to 100 | > 100 | 6 to 40 |
| COc1cc2[nH]nc(-c3cnn([C@H]4CCN(C(=O)[C@H]5COCCN5C)C4)c3)c2nc1-c1cccc2c1CCC2 [Example 138, ((S)-3-(4-(5-(2,3-Dihydro-1H-inden-4-yl)-6-methoxy-1H-pyrazolo[4,3-b]pyridin-3-yl)-1H-pyrazol-1-yl)pyrrolidin-1-yl)((R)-4-methylmorpholin-3-yl)methanone] | < 6 | 6 to 40 | – | < 6 | – | 40 to 100 | – |
